# From patent publication US9809623B2, “α4β7 peptide monomer and dimer antagonists” (Protagonist Therapeutics, Inc., priority 2014, dated 2017)
# Numbered stars: 1 amine (or outer) side, 2 acyl side, 3 side chain; on linkers, the order of the positions; unused ones are H or OH. Bridge positions count the residues as written; N and C are the ends. Square brackets hold non-standard residues; d marks the D form. Peptide text beside a SMILES is read from it. I, II: the chains in the order shown. * marks the point of attachment. Phe(4-tBu) = CC(C)(C)c1ccc(C[C@H](N)C(=O)O)cc1; Diglycolyl = O=C(COCC(=O)[*:2])[*:1]; Oleoyl = CCCCCCCC/C=C\CCCCCCCC(=O)*; NMeR = CN[C@@H](CCCNC(=N)N)C(=O)O; Palmitoyl = CCCCCCCCCCCCCCCC(=O)*; Myristoyl = CCCCCCCCCCCCCC(=O)*; β3hE = N[C@@H](CCC(=O)O)CC(=O)O; Pen = CC(C)(S)[C@H](N)C(=O)O; Lauroyl = CCCCCCCCCCCC(=O)*
# Molecular target: α4β7 (Homo sapiens, UniProt P13612+P26010)
# Assay: α4β7-MAdCAM Cell Adhesion Assay (RPMI 8866 human cells)
# Assay type: cell-based
# Design: host or cells: RPMI 8866 human B lymphoblastoid cells
# Details: Table 3-B, Potency (α4β7); range classes; read-out: α4β7 cell (Hu) IC50
# In short: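 Washed RPMI 8866 cells (200,000/well) in DMEM with 0.1% BSA, 10 mM HEPES pH 7, 1 mM MnCl2 adhered to rh MAdCAM-1/Fc-coated wells with serially diluted peptides, 30-45 min at 37 °C. After three washes, bound cells quantified by MTT, A570, cell-free background subtracted for dose response.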
# Chain of α4β7 (P13612 34-1032): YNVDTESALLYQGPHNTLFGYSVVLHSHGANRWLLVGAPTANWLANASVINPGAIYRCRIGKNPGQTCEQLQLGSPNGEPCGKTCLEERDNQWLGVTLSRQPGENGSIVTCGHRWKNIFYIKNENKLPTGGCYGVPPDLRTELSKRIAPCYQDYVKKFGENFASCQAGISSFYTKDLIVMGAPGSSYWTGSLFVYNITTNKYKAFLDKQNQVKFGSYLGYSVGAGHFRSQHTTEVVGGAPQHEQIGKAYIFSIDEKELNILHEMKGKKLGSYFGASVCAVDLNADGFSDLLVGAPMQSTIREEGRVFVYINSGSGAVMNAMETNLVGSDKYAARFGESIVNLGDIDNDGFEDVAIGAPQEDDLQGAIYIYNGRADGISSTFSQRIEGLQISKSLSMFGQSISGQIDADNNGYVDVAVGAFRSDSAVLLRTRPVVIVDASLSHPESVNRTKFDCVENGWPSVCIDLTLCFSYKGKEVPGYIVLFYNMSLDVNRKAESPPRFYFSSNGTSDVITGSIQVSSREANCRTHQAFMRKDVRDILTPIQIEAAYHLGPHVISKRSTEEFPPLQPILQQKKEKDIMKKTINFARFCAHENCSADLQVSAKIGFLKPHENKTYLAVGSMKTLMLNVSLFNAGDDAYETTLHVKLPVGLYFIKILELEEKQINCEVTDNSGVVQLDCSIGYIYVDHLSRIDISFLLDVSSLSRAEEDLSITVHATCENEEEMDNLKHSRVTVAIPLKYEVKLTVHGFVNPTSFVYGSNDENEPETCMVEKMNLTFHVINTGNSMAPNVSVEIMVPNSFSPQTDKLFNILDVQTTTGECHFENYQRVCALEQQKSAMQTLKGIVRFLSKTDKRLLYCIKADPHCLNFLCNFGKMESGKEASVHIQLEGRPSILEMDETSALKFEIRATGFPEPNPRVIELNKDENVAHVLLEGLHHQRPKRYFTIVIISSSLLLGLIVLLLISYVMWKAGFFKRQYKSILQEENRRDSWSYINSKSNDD
# Chain of α4β7 (P26010 20-798): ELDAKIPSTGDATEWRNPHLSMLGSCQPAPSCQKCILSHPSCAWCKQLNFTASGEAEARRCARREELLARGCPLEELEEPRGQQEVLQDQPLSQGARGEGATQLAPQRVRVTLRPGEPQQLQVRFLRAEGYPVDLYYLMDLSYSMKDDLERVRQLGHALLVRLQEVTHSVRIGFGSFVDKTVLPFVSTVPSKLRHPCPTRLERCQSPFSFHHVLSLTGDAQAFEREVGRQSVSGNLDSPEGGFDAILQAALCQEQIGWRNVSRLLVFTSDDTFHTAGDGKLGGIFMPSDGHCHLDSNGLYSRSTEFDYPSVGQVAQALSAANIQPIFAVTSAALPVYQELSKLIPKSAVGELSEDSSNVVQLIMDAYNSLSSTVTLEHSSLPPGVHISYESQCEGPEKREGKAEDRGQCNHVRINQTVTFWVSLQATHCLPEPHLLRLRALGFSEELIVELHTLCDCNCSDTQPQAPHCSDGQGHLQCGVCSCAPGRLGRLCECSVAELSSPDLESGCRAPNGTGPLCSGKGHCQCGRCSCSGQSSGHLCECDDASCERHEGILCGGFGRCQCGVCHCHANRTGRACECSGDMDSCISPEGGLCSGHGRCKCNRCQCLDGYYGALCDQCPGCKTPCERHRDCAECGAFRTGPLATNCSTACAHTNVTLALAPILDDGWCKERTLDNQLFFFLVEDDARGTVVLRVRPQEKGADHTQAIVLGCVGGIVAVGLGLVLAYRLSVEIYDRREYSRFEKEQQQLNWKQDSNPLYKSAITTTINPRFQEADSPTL
row,Structure (SMILES),IC50
1,CCCCCCCCCCCCCCCC(=O)N[C@@H]1C(=O)N(C)[C@@H](CCCNC(=N)N)C(=O)N[C@@H](CO)C(=O)N[C@@H](CC(=O)O)C(=O)N[C@@H]([C@@H](C)O)C(=O)N[C@@H](CC(C)C)C(=O)N[C@H](C(=O)N[C@@H](Cc2ccc(C(C)(C)C)cc2)C(=O)N[C@@H](CCC(=O)O)CC(=O)N[C@H](CCCCN)C(N)=O)C(C)(C)SSC1(C)C [compound 178] (Palmitoyl-[Pen][NMeR]SDTL[Pen][Phe(4-tBu)][β3hE][dK]-NH2; disulfide 1-7),1 to 10 µM
2,CCCCCCCCCCCC(=O)N[C@@H]1C(=O)N(C)[C@@H](CCCNC(=N)N)C(=O)N[C@@H](CO)C(=O)N[C@@H](CC(=O)O)C(=O)N[C@@H]([C@@H](C)O)C(=O)N[C@@H](CC(C)C)C(=O)N[C@H](C(=O)N[C@@H](Cc2ccc(C(C)(C)C)cc2)C(=O)N[C@@H](CCC(=O)O)CC(=O)N[C@H](CCCCN)C(N)=O)C(C)(C)SSC1(C)C [compound 179] (Lauroyl-[Pen][NMeR]SDTL[Pen][Phe(4-tBu)][β3hE][dK]-NH2; disulfide 1-7),0.1 to 0.5 µM
3,CCCCCCCC/C=C\CCCCCCCC(=O)N[C@@H]1C(=O)N(C)[C@@H](CCCNC(=N)N)C(=O)N[C@@H](CO)C(=O)N[C@@H](CC(=O)O)C(=O)N[C@@H]([C@@H](C)O)C(=O)N[C@@H](CC(C)C)C(=O)N[C@H](C(=O)N[C@@H](Cc2ccc(C(C)(C)C)cc2)C(=O)N[C@@H](CCC(=O)O)CC(=O)N[C@H](CCCCN)C(N)=O)C(C)(C)SSC1(C)C [compound 180] (Oleoyl-[Pen][NMeR]SDTL[Pen][Phe(4-tBu)][β3hE][dK]-NH2; disulfide 1-7),1 to 10 µM
4,CCCCCCCCCCCCCC(=O)N[C@@H]1C(=O)N(C)[C@@H](CCCNC(=N)N)C(=O)N[C@@H](CO)C(=O)N[C@@H](CC(=O)O)C(=O)N[C@@H]([C@@H](C)O)C(=O)N[C@@H](CC(C)C)C(=O)N[C@H](C(=O)N[C@@H](Cc2ccc(C(C)(C)C)cc2)C(=O)N[C@@H](CCC(=O)O)CC(=O)N[C@H](CCCCN)C(N)=O)C(C)(C)SSC1(C)C [compound 181] (Myristoyl-[Pen][NMeR]SDTL[Pen][Phe(4-tBu)][β3hE][dK]-NH2; disulfide 1-7),1 to 10 µM
5,CC[C@H](C)[C@@H]1NC(=O)[C@H](CC(=O)O)NC(=O)[C@H](CO)NC(=O)[C@H](CCCNC(=N)N)N(C)C(=O)[C@@H](NC(C)=O)C(C)(C)SSC(C)(C)[C@@H](C(=O)N[C@@H](Cc2ccc(C(C)(C)C)cc2)C(=O)N[C@@H](CCC(=O)O)CC(=O)N[C@H](CCCCNC(=O)CN(CC(=O)NCCCC[C@@H](NC(=O)C[C@H](CCC(=O)O)NC(=O)[C@H](Cc2ccc(C(C)(C)C)cc2)NC(=O)[C@H]2NC(=O)[C@H](CC(C)C)NC(=O)[C@H]([C@@H](C)CC)NC(=O)[C@H](CC(=O)O)NC(=O)[C@H](CO)NC(=O)[C@H](CCCNC(=N)N)N(C)C(=O)[C@@H](NC(C)=O)C(C)(C)SSC2(C)C)C(N)=O)C(=O)CCN)C(N)=O)NC(=O)[C@H](CC(C)C)NC1=O [compound 186],0.1 to 0.5 µM
6,CC(=O)N[C@@H]1C(=O)N(C)[C@@H](CCCNC(=N)N)C(=O)N[C@@H](CO)C(=O)N[C@@H](CC(=O)O)C(=O)N[C@@H]([C@@H](C)O)C(=O)N[C@@H](CCC(N)=O)C(=O)N[C@H](C(=O)N[C@@H](Cc2ccc(C(C)(C)C)cc2)C(=O)N[C@@H](CCC(=O)O)CC(=O)N[C@H](CCCCNC(=O)CN(CC(=O)NCCCC[C@@H](NC(=O)C[C@H](CCC(=O)O)NC(=O)[C@H](Cc2ccc(C(C)(C)C)cc2)NC(=O)[C@H]2NC(=O)[C@H](CCC(N)=O)NC(=O)[C@H]([C@@H](C)O)NC(=O)[C@H](CC(=O)O)NC(=O)[C@H](CO)NC(=O)[C@H](CCCNC(=N)N)N(C)C(=O)[C@@H](NC(C)=O)C(C)(C)SSC2(C)C)C(N)=O)C(=O)CCN)C(N)=O)C(C)(C)SSC1(C)C [compound 187],0.1 to 0.5 µM
7,"CC[C@H](C)[C@@H]1NC(=O)[C@H](CCC(N)=O)NC(=O)[C@H](CO)NC(=O)[C@H](CCCNC(=N)N)N(C)C(=O)[C@@H](NC(C)=O)C(C)(C)SSC(C)(C)[C@@H](C(=O)N[C@@H](Cc2ccc(C(C)(C)C)cc2)C(=O)N[C@@H](CCC(=O)O)CC(=O)N[C@H](CCCCNC(=O)COCC(=O)NCCCC[C@@H](NC(=O)C[C@H](CCC(=O)O)NC(=O)[C@H](Cc2ccc(C(C)(C)C)cc2)NC(=O)[C@H]2NC(=O)[C@H](CCC(N)=O)NC(=O)[C@H]([C@@H](C)CC)NC(=O)[C@H](CCC(N)=O)NC(=O)[C@H](CO)NC(=O)[C@H](CCCNC(=N)N)N(C)C(=O)[C@@H](NC(C)=O)C(C)(C)SSC2(C)C)C(N)=O)C(N)=O)NC(=O)[C@H](CCC(N)=O)NC1=O [compound 189] (I: Ac-[Pen][NMeR]SQIQ[Pen][Phe(4-tBu)][β3hE][dK]-NH2 / II: Ac-[Pen][NMeR]SQIQ[Pen][Phe(4-tBu)][β3hE][dK]-NH2; disulfide I:1-I:7, II:1-II:7; linker I:10-II:10 via Diglycolyl)",10 to 100 µM
8,CC[C@H](C)[C@@H]1NC(=O)[C@H](CCC(N)=O)NC(=O)[C@H](CO)NC(=O)[C@H](CCCNC(=N)N)N(C)C(=O)[C@@H](NC(C)=O)C(C)(C)SSC(C)(C)[C@@H](C(=O)N[C@@H](Cc2ccc(C(C)(C)C)cc2)C(=O)N[C@@H](CCC(=O)O)CC(=O)N[C@H](CCCCNC(=O)CN(CC(=O)NCCCC[C@@H](NC(=O)C[C@H](CCC(=O)O)NC(=O)[C@H](Cc2ccc(C(C)(C)C)cc2)NC(=O)[C@H]2NC(=O)[C@H](CCC(N)=O)NC(=O)[C@H]([C@@H](C)CC)NC(=O)[C@H](CCC(N)=O)NC(=O)[C@H](CO)NC(=O)[C@H](CCCNC(=N)N)N(C)C(=O)[C@@H](NC(C)=O)C(C)(C)SSC2(C)C)C(N)=O)C(=O)CCN)C(N)=O)NC(=O)[C@H](CCC(N)=O)NC1=O [compound 190],> 100 µM
9,CC(=O)N[C@@H]1C(=O)N(C)[C@@H](CCCNC(=N)N)C(=O)N[C@@H](CO)C(=O)N[C@@H](CC(=O)O)C(=O)N[C@@H](CC(=O)O)C(=O)N[C@@H](CC(C)C)C(=O)N[C@H](C(=O)N[C@@H](Cc2ccc(C(C)(C)C)cc2)C(=O)N[C@@H](CCC(=O)O)CC(=O)N[C@H](CCCCNC(=O)CN(CC(=O)NCCCC[C@@H](NC(=O)C[C@H](CCC(=O)O)NC(=O)[C@H](Cc2ccc(C(C)(C)C)cc2)NC(=O)[C@H]2NC(=O)[C@H](CC(C)C)NC(=O)[C@H](CC(=O)O)NC(=O)[C@H](CC(=O)O)NC(=O)[C@H](CO)NC(=O)[C@H](CCCNC(=N)N)N(C)C(=O)[C@@H](NC(C)=O)C(C)(C)SSC2(C)C)C(N)=O)C(=O)CCN)C(N)=O)C(C)(C)SSC1(C)C [compound 191],10 to 100 µM
